# Laboratory results reported in patent US20240382484A1, “COMPOSITION FOR TREATING, PREVENTING, OR AMELIORATING MELANOMA AND METHOD THEREOF” (Thomas Jefferson University, priority 2021, published 2024).
# Assays:
# [1] = test system: SK-MEL-30 and SK-MEL-173 PDPK1-knockdown cells; experiment: Cellular growth of siRNA PDPK1-knockdown cells in response to MEKi; format: cell-based, human; settings: SK-MEL-30 and SK-MEL-173, 3 days, siPDPK1 vs siCtrl
# Description: FIGS. 3A-3B: PDPK1 depletion by two individual sgRNAs in WM1361A (FIG. 3A) or WM1366 (FIG. 3B) cells were analyzed by immunoblot. FIGS. 3C-3D, Cell growth of WM1361A (FIG. 3C) or WM1366 (FIG. 3D) parental clones (Cas9) and PDPK1-depleted clones by two individual sgRNAs (KO1 and KO2) treated with vehicle (DMSO) or trametinib (Tram) was monitored by IncuCyte every 2 hours. Media were replaced twice with fresh drugs during culture. Data are represented as the mean±SEM of three biological independent experiments. p values were calculated with an unpaired two-tailed t test. n.s., not significant. FIGS. 3E-3F, Cellular growth in response to trametinib at the indicated doses for 5 days in WM1361A (FIG. 3E) or WM1366 (FIG. 3F) parental clone (iCas9) and PDPK1-depleted clones (KO1 and K02). Media were replaced once with drugs during culture. […] FIGS. 3G-3J, PDPK1 knockdown by ON-target control siRNAs and two individual siRNAs in SK-MEL-30 (FIG. 3G) or SK-MEL-173 cells (FIG. 3I) was analyzed by immunoblot. […]
# FIG. 12A-12B: Cell growth of WM1361A (FIG. 12A) or WM1366 (FIG. 12B) parental clone (Cas9) and PDPK1-depleted clones (KO1 and K02) treated with vehicle (DMSO) or PD0325901 (PD) was monitored by IncuCyte every 2 hours. […] Data are represented as the mean±SEM of three biological independent experiment. p values were calculated with an unpaired two-tailed t test. n.s., not significant. […]
# [2] = test system: WM1361A, WM1366, SK-MEL-30 or SK-MEL-173 cells; experiment: 7-day cell growth monitored by IncuCyte; format: cell-based, human; settings: 7-day treatment course
# Description: FIG. 2A: NRAS mutant melanoma cell line WM1361A, WM1366, SK-MEL-30, SK-MEL-173, 1007 and 1014 were treated for 72 hours as indicated with GSK2334470 and trametinib and analyzed for cell density by IncuCyte. Synergy graphs were generated utilizing Combenefit Software with Loewe method. Data are represented as the mean from three biological independent experiments. FIG. 2B: WM1361A, WM1366, SK-MEL-30 or SK-MEL-173 cells were treated with GSK2334470 (PDPK1i) and trametinib (tram) alone or in combination (comb) at the indicated concentrations for 7 days. Cell growth was monitored by IncuCyte every 2 hours. Media were replaced twice with drugs during culture. Data are represented as the mean±SEM of three biological independent experiments. p values were calculated with an unpaired two-tailed t test. n.s., not significant.
# FIG. 11A: WM1361A, WM1366, SK-MEL-30 and SK-MEL-173 cells were treated for 72 hours as indicated with GSK2334470 and PD0325901 and analyzed for cell density by IncuCyte. […] Cell growth was monitored by IncuCyte every 2 hours. Data are represented as the mean±SEM of three biological independent experiments. p values were calculated with an unpaired two-tailed t test. n.s., not significant.
# For cell proliferation and drug response, cells were monitored by IncuCyte® (Essen Bioscience, Ann Arbor, MI) every 2 hours.
# [3] = test system: WM1361A and WM1366 PDPK1-depleted clones; experiment: Cell growth of PDPK1-depleted (sgRNA knockout) clones in response to MEKi; format: cell-based, human; settings: for decrease of the half-maximum inhibitory concentration by PDPK1 depletion: WM1361A and WM1366, 5 days, PDPK1-depleted clones vs parental clone; for cell proliferation, MEKi combined with PDPK1 depletion: WM1361A and WM1366 KO1 and KO2 clones
# Description: FIGS. 3A-3B: PDPK1 depletion by two individual sgRNAs in WM1361A (FIG. 3A) or WM1366 (FIG. 3B) cells were analyzed by immunoblot. FIGS. 3C-3D, Cell growth of WM1361A (FIG. 3C) or WM1366 (FIG. 3D) parental clones (Cas9) and PDPK1-depleted clones by two individual sgRNAs (KO1 and KO2) treated with vehicle (DMSO) or trametinib (Tram) was monitored by IncuCyte every 2 hours. Media were replaced twice with fresh drugs during culture. Data are represented as the mean±SEM of three biological independent experiments. p values were calculated with an unpaired two-tailed t test. n.s., not significant. FIGS. 3E-3F, Cellular growth in response to trametinib at the indicated doses for 5 days in WM1361A (FIG. 3E) or WM1366 (FIG. 3F) parental clone (iCas9) and PDPK1-depleted clones (KO1 and K02). Media were replaced once with drugs during culture. Data are represented as dots of three biological independent experiments. FIGS. 3G-3J, PDPK1 knockdown by ON-target control siRNAs and two individual siRNAs in SK-MEL-30 (FIG. 3G) or SK-MEL-173 cells (FIG. 3I) was analyzed by immunoblot. Cellular growth in response to trametinib at the indicated doses for 3 days in SK-MEL-30 (FIG. 3H) or SK-MEL-173 (FIG. 3J) control cells (siCtrl) and PDPK1-knockdown cells (siPDPK1s). Data are represented as dots of at least three biological independent experiments.
# FIG. 12A-12B: Cell growth of WM1361A (FIG. 12A) or WM1366 (FIG. 12B) parental clone (Cas9) and PDPK1-depleted clones (KO1 and K02) treated with vehicle (DMSO) or PD0325901 (PD) was monitored by IncuCyte every 2 hours. Media were replaced twice with drugs during culture. Data are represented as the mean±SEM of three biological independent experiment. p values were calculated with an unpaired two-tailed t test. n.s., not significant. FIGS. 12C-12D, Cellular growth in response to PD0325901 at the indicated doses for 5 days in WM1361A (FIG. 12C) or WM1366 (FIG. 12D) parental clone (iCas9) and PDPK1-depleted clones (KO1 and K02). Media were replaced once with drugs during culture. Data are represented as dots of three biological independent experiments. FIG. 12E-12F, Cellular growth in response to PD0325901 at the indicated doses for 3 days in SK-MEL-30 (FIG. 12E) or SK-MEL-173 (FIG. 12F) control cells (siCtrl) and PDPK1-knockdown cells (siPDPK1s). Data are represented as dots of at least three biological independent experiments.
# To test whether the synergistic effects of GSK2334470 was PDPK1-dependent, the present study generated PDPK1 knockout clones using high gene-editing efficiency clones of WM1361A and WM1366 cells. Depletion of PDPK1 by two different sgRNAs in both cell lines (FIGS. 3A-3B) attenuated cellular proliferation (FIGS. 3C-3D). […]
# [4] = test system: Nras Q61K mouse melanoma isografts of 1014 cells; experiment: 1014 allograft model in immunocompetent B6 mice; format: in vivo; settings: trametinib chow and/or GSK2334470 injection three times per week
SMILES,half-maximum inhibitory concentration upon PDPK1 knockdown [1],"cell proliferation, MEKi combined with PDPK1i (GSK2334470) [2]",decrease of the half-maximum inhibitory concentration by PDPK1 depletion [3],"cell proliferation, MEKi combined with PDPK1 depletion [3]",tumor growth [4]
"O=C(NOC[C@H](O)CO)c1ccc(F)c(F)c1Nc1ccc(I)cc1F [PD0325901, (R)—N-(2,3-dihydroxypropoxy)-3,4-difluoro-2-((2-fluoro-4-iodophenyl)amino)benzamide]",decreased,profoundly inhibited,approximately 4 fold,effectively inhibited,
"CC(=O)Nc1cccc(-n2c(=O)n(C3CC3)c(=O)c3c(Nc4ccc(I)cc4F)n(C)c(=O)c(C)c32)c1 [trametinib, N-(3-(3-cyclopropyl-5-((2-fluoro-4-iodophenyl)amino)-6,8-dimethyl-2,4,7-trioxo-3,4,6,7-tetrahydropyrido[4,3-d]pyrimidin-1(2H)-yl)phenyl)acetamide]",decreased,profoundly inhibited,approximately 4 fold,effectively inhibited,modest delay of tumor growth
